Several values for one entry are separate records, joined by “and”; a condition that tells them apart may be missing. Identical values can stand only once. Like-named read-outs stand apart in the source and are kept apart here.
Experiments:
[1] = system: Enterococcus faecium (ATCC 19634); test: Minimum Inhibitory Concentration, micro-dilution broth; format: cell-based; settings: 24 h, 37° C., read-out: Minimum Inhibitory Concentration E. faceium
[2] = system: E. coli (MTCC 443); test: as above; format: cell-based; settings: 24 h, 37° C.
[3] = system: S. aureus (MTCC 737); test: as above; format: cell-based, Staphylococcus aureus; settings: 37° C.
[4] = system: vancomycin resistant Enterococcus faecium (VRE) (ATCC 51559); test: as above; format: cell-based; settings: 24 h, 37° C.
[5] = system: Klebsiella pneumoniae (ATCC 700603); test: as above; format: cell-based; settings: 24 h, 37° C.
[6] = system: human Red Blood Cells; test: Haemolytic activity; settings: human RBCs, 1 h at 37° C.
[7] = system: MRSA (ATCC 33591); test: Minimum Inhibitory Concentration, micro-dilution broth; format: cell-based, methicillin-resistant S. aureus; settings: 24 h, 37° C.

| Compound | MIC [1] [µM] | MIC [2] [µM] | MIC ([3]; 24 h) [µM] | MIC [4] | Minimum Inhibitory Concentration K. pneumonie [5] [µM] | HC50 ([6]; Table 6) [µM] | Minimum Inhibitory Concentration MRSA [7] | HC50 ([6]; Table 3) | MIC ([1]; Enterococcus faecium, ATCC19634, 24 h) [µM] | MIC ([2]; Escherichia coli, MTCC443) [µM] | MIC ([3]; Staphylococcus aureus, MTCC737, 24 h) [µM] |
| --- | --- | --- | --- | --- | --- | --- | --- | --- | --- | --- | --- |
| CCCCCCCCCCCC(=O)N(CCCNC(=O)[C@@H](N)CC(C)C)CCCNC(=O)[C@@H](N)CC(C)C.O=C(O)C(F)(F)F.O=C(O)C(F)(F)F [Compound 54, N,N-bis-[{3-(^LLeu)amido}propyl]dodecanamide bis(trifluoroacetate)] | 8.6 | 8.8 | 5.8 | 5 µM | 18 | 305 | 8.9 µM |  |  |  |  |
| CCCCCCCCCCCCCCCC(=O)N(CCCNC(=O)[C@@H](N)C(C)C)CCCNC(=O)[C@@H](N)C(C)C.O=C(O)C(F)(F)F.O=C(O)C(F)(F)F [Compound 50, N,N-bis-[{3-(^LVal)amido}propyl]hexadecanamide bis(trifluoroacetate)] | 1.7 | 10 | 2.7 | 1.4 µM | >314 | 86 | 1.9 µM |  |  |  |  |
| N^1-octyl-N^3-(Boc-^LPhe)-N^1-[3-{(Boc-^LPhe)amino}propyl]propane-1,3-diamine tris(trifluoroacetate) [Compound 18] |  | 68 | 38 |  |  |  |  |  |  |  |  |
| N^1-octyl-N^3-(Boc-^LAla)-N^1-[3-{(Boc-^LAla)amino}propyl]propane-1,3-diamine tris(trifluoroacetate) [Compound 19] |  | 343 | 313 |  |  |  |  |  |  |  |  |
| CCCCCCCCCCCCCC(=O)N(CCCNC(=O)[C@@H](N)Cc1c[nH]c2ccccc12)CCCNC(=O)[C@@H](N)Cc1c[nH]c2ccccc12.O=C(O)C(F)(F)F.O=C(O)C(F)(F)F [Compound 7, N,N-bis-[{3-(^LTrp)amino}propyl]tetradecanamide bis(trifluoroacetate)] | 2.5 | 39 | 2.5 | 2.7 µM |  |  |  |  |  |  |  |
| CCCCCCCCCCCCCCCC(=O)N(CCCNC(=O)[C@@H](N)CCCCN)CCCNC(=O)[C@@H](N)CCCCN.O=C(O)C(F)(F)F.O=C(O)C(F)(F)F [Compound 12, N,N-bis-[{3-(^LLys)amino}propyl]hexadecanamide bis(trifluoroacetate)] | 1.1 | 5.4 |  | 1 µM | 6.5 |  | 4.8 µM | 264 |  |  |  |
| N^1-octyl-N^3-(Boc-^LLys)-N^1-[3-{(Boc-^LLys)amino}propyl]propane-1,3-diamine tris(trifluoroacetate) [Compound 20] |  | 133 | 86 |  |  |  |  |  |  |  |  |
| CCCCCCCCCCCCCCCCCC(=O)N(CCCNC(=O)[C@@H](N)CCCCN)CCCNC(=O)[C@@H](N)CCCCN.O=C(O)C(F)(F)F.O=C(O)C(F)(F)F [Compound 13, N,N-bis-[{3-(^LLys)amino}propyl]octadecanamide bis(trifluoroacetate)] |  | 8.4 | 7.7 | 2.2 µM | 7.5 |  | 14 µM | 108 |  |  |  |
| CCCCCCCCCCCCCC(=O)N(CCCNC(=O)[C@@H](N)CC(C)C)CCCNC(=O)[C@@H](N)CC(C)C.O=C(O)C(F)(F)F.O=C(O)C(F)(F)F [Compound 55, N,N-bis-[{3-(^LLeu)amido}propyl]tetradecanamide bis(trifluoroacetate)] | 4.2 | 5.4 | 3.6 |  |  | 118 |  |  |  |  |  |
| CCCCCCCCCCCCCCCC(=O)N(CCCNC(=O)[C@@H](N)Cc1c[nH]c2ccccc12)CCCNC(=O)[C@@H](N)Cc1c[nH]c2ccccc12.O=C(O)C(F)(F)F.O=C(O)C(F)(F)F [Compound 8, N,N-bis-[{3-(^LTrp)amino}propyl]hexadecanamide bis(trifluoroacetate)] | 5.4 | >257 | 6.5 | 7 µM |  |  |  |  |  |  |  |
| N[C@@H](Cc1ccccc1)C(=O)NCCCN(CCCNC(=O)[C@@H](N)Cc1ccccc1)C(=O)Cc1cccc2ccccc12 [Compound 21, N,N-bis-[{3-(^LPhe)amino}propyl]α-naphthylacetamide bis(trifluoroacetate)] |  |  |  | > 304 µM |  |  |  |  | > 304 | > 304 | > 304 |
| CCCCCCCCCCCCCCCC(=O)N(CCCNC(=O)[C@H](N)CCCCN)CCCNC(=O)[C@H](N)CCCCN.O=C(O)C(F)(F)F.O=C(O)C(F)(F)F [Compound 17, N,N-bis-[{3-(^DLys)amino}propyl]hexadecanamide bis(trifluoroacetate)] | 2.7 | 4.8 | 3.9 | 2.2 µM |  |  |  |  |  |  |  |
| N[C@@H](Cc1ccccc1)C(=O)NCCCNCCCNC(=O)[C@@H](N)Cc1ccccc1.O=C(O)C(F)(F)F.O=C(O)C(F)(F)F.O=C(O)C(F)(F)F [Compound 22, N^1-^LPhe-N^3-[{3-(^LPhe)amino}propyl]propane-1,3-diamine tris(trifluoroacetate)] | >250 | >250 | >250 | >250 µM | >250 |  | >250 µM |  |  |  |  |
| CCCCCCCCCCCCCCCC(=O)N(CCCNC(=O)[C@@H](N)[C@@H](C)CC)CCCNC(=O)[C@@H](N)[C@@H](C)CC.O=C(O)C(F)(F)F.O=C(O)C(F)(F)F [Compound 53, N,N-bis-[{3-(^LIle)amido}propyl]hexadecanamide bis(trifluoroacetate)] | 3 | 26 | 4 | 4.2 µM and 2.6 µM |  | 60 | 2.6 µM and 2.7 µM |  |  |  |  |
| CCCCCCCCCCCCCCCC(=O)N(CCCNC(=O)[C@@H](N)CCCN)CCCNC(=O)[C@@H](N)CCCN.O=C(O)C(F)(F)F.O=C(O)C(F)(F)F [Compound 15, N,N-bis-[{3-(^LOrn)amino}propyl]hexadecanamide bis(trifluoroacetate)] | 3.2 | 5.2 | 6.4 | 3 µM |  |  |  |  |  |  |  |
| NCCCC[C@H](N)C(=O)NCCCNCCCNC(=O)[C@@H](N)CCCCN.O=C(O)C(F)(F)F.O=C(O)C(F)(F)F.O=C(O)C(F)(F)F [Compound 23, N^1-^LLys-N^3-[{3-(^LLys)amino}propyl]propane-1,3-diamine tris(trifluoroacetate)] | >250 | >250 | >250 | >250 µM | >250 |  | >250 µM |  |  |  |  |
| CCCCCCCCCCCCCC(=O)N(CCCNC(=O)[C@@H](N)CCCN)CCCNC(=O)[C@@H](N)CCCN.O=C(O)C(F)(F)F.O=C(O)C(F)(F)F [Compound 14, N,N-bis-[{3-(^LOrn)amino}propyl]tetradecanamide bis(trifluoroacetate)] | 5.2 | 6.6 | 7.9 | 5.3 µM |  |  |  |  |  |  |  |
